Tests used:
[1] = Mouse lung homogenate pharmacokinetics; details: IP, 20 mg/kg normalized to 60 mg/kg
Method: Mice were sacrificed at 0.08, 0.16, 0.25, 0.5, 0.75, 1.0, 2.0, 3.0, and 4.0 h after dosing and their lungs collected. […] Analytical standards (0.05 to 100 mg/L) were prepared in fresh mouse lung homogenate collected from untreated animals. […] Aliquots of the supernatant (25 μl) were injected directly onto the HPLC using a temperature-controlled autoinjector set at 10° C. Standard curves were constructed of the peak area versus standard concentration, and the data were fit using weighted linear regression (Microsoft Excel, Seattle, Wash.). […] The lung pharmacokinetic parameters were determined using WinNonlin (Pharsight, Mountain View, Calif.).

[2] = Aerosol and IV levofloxacin in saline in normal healthy volunteers and CF subjects (serum, sputum, deconvolution); details: for Mean projected Cmax in the ELF: CF patients, ELF volume 25 ml; for AUC / Cmax / half-life / clearance: human, in vivo; for clearance: Total levofloxacin clearance, serum
Method: Safety, tolerability, and pharmacokinetics (serum, sputum, and urinary excretion) data were collected after each dose.
A weight of 1/y-observed was applied in the regression. Goodness of fit was assessed by the minimized objective function and inspection of weighted residual plots. […] Briefly, this analysis compares the appearance and elimination of drug following aerosol and intravenous doses to determine the amount of drug remaining in the lung (absorption compartment) over time. To estimate concentrations of drug in lung, amounts were divided by estimates of the epithelial lung fluid (ELF) volume (25 ml) for each subject. Noncompartmental pharmacokinetic analysis was subsequently applied to these projected concentrations of drug in the lung to determine values for AUC.
The area under the sputum concentration vs. time curve was estimated using the linear trapezoidal rule.

clinical = assay: clinical
Method: This analysis compares the appearance and elimination of drug following aerosol and intravenous doses to determine the amount of drug remaining in the lung (absorption compartment) over time. To estimate concentrations of drug in lung, amounts were divided by estimates of the epithelial lung fluid (ELF) volume (25 ml) for each subject. Non-compartmental pharmacokinetic analysis was subsequently applied to these projected concentrations of drug in the lung to determine AUCs.

[3] = serum, 5 minute IV infusion 50 mg, single healthy volunteer

In the case of `C[C@H]1COc2c(N3CCN(C)CC3)c(F)cc3c(=O)c(C(=O)O)cn1c23` [Levofloxacin, levofloxacin], the “AUC (Normalized to 60 mg/kg)” value [1] is reported as 12.3 mg·h/kg, the “Cmax (Normalized to 60 mg/kg)” value [1] is reported as 18.6 mg/kg and the “Mean projected Cmax in the ELF” value ([2]; high dose (RDD 40 mg)) is reported as > 1000 µg/mL. For the same molecule, the “Mean projected Cmax in the ELF” value ([2]; low dose (RDD 20 mg)) was “exceeded 500 μg/ml”, the “time for which 50% of the lung dose remains in the lung” value ([2]; CF subjects, aerosol in saline, serum deconvolution) was “at least 0.5 hours” and the “peak sputum concentrations higher than 750 mg oral dose” value ([2]; aerosol doses as low as 20 mg) was 10 fold. It also gave an AUC ([2]; 20 mg) of 67100 ng·h/mL, a Cmax ([2]; 20 mg) of 86.2 µg/mL and a half-life ([2]; 20 mg) of 0.9 h. The AUC ([2]; 40 mg) was 171000 ng·h/mL, the Cmax ([2]; 40 mg) was 212 µg/mL and the half-life ([2]; 40 mg) was 1.3 h. It also gave a clearance ([2]; 50 mg, CF subjects) of 235 mL/min, a clearance ([2]; 50 mg, NHV subjects) of 287 mL/min and an AUC ([2]; iv, 50 mg) of 2500 ng·h/mL. The Cmax ([2]; iv, 50 mg) was 0.8 µg/mL, the AUC ([2]; po, 750 mg) was 93400 ng·h/mL and the Cmax ([2]; po, 750 mg) was 8.7 µg/mL. The Vd (clinical; human, in vivo, iv) was 135 L, the clearance (clinical; human, in vivo, iv) was 266 mL/min and the A (clinical; [3]) was 2.05 mg/L. It also gave a B (clinical; [3]) of 0.30 mg/L and a V2 (clinical; [3]) of 114.03 L.

Source: patent US10722519B2, “Aerosol fluoroquinolone formulations for improved pharmacokinetics” (priority 2008, dated 2020)
